Assay results from patent publication EP0694535A1, “Non-peptidyl tachykinin receptor antagonists” (ELI LILLY AND COMPANY, priority 1994, dated 1996).
Counter-ions that a name gives are not always drawn.

Target: T1, NK-1 receptor (Homo sapiens, UniProt P25103)
T1 construct: an aliquot of IM9 cells; endogenous in cells; host or cells: IM9 cells (whole cells)
Assay: NK-1 Receptor Binding Assay (competition with labeled substance P on IM9 cells)
Conditions: for inhibition at 20 µM / inhibition at 10 µM: inhibition of substance P binding to the NK-1 receptor, read-out: Percent Inhibition; for IC50: concentration which inhibits fifty percent of the binding of substance P, 20 pM labeled substance P, 45 minutes at 4°C
Procedure: Radioreceptor binding assays were performed using a derivative of a previously published protocol. D.G. Payan, et al., Journal of Immunology, 133:3260-3265 (1984). In this assay an aliquot of IM9 cells (1 x 10⁶ cells/tube in […] medium supplemented with 10% fetal calf serum) was incubated with 20 pM […] substance P in the presence of increasing competitor concentrations for 45 minutes at 4°C.
The IM9 cell line is a well-characterized cell line which is readily available to the public. See. e.g., Annals of the New York Academy of Science, 190: 221-234 (1972); Nature (London), 251:443-444 (1974); Proceedings of the National Academy of Sciences (USA), 71:84-88 (1974). These cells were routinely cultured in RPMI 1640 supplemented with 50 µg/ml gentamicin sulfate and 10% fetal calf serum.
The reaction was terminated by filtration through a glass fiber filter harvesting system using filters previously soaked for 20 minutes in 0.1% polyethylenimine. Specific binding of labeled substance P was determined in the presence of 20 nM unlabeled ligand.
Column 1 provides the example number of the test antagonist compound. The next columns detail the substitution patterns of the test compound.

T1 sequence (P25103 whole entry): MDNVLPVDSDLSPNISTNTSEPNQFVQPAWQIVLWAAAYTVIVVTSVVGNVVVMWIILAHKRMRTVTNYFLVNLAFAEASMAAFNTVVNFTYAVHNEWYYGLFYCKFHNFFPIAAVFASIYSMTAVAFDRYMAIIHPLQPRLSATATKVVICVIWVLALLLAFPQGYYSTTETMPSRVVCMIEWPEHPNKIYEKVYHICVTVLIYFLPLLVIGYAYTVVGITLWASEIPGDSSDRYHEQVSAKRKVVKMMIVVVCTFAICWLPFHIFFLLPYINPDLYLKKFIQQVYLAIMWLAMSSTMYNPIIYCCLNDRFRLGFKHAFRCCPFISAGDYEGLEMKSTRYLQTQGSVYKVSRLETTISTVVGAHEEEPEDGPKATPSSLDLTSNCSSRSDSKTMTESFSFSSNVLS

Compound	inhibition at 20 µM [%]	IC50 [µM]	other results
c1ccc(-c2nc3ccccc3n2-c2ccccc2)cc1 [Example 1, 1,2-diphenylbenzimidazole]	25		
COc1ccc(-c2nc3ccccc3n2-c2ccccc2)cc1 [Example 2, 1-phenyl-2-(4-methoxyphenyl)benzimidazole]	38		
c1ccc(Cc2nc3ccccc3n2-c2ccccc2)cc1 [Example 3, 1-phenyl-2-phenylmethylbenzimidazole]	30		
Clc1cccc(-c2nc3ccccc3n2-c2ccccc2)c1 [Example 4, 1-phenyl-2-(3-chlorophenyl)benzimidazole]		7	
Clc1ccc(-c2nc3ccccc3n2-c2ccccc2)cc1 [Example 5, 1-phenyl-2-(4-chlorophenyl)benzimidazole]	38		
COc1cccc(-c2nc3ccccc3n2-c2ccccc2)c1 [Example 6, 1-phenyl-2-(3-methoxyphenyl)benzimidazole]		3.29	
O=[N+]([O-])c1ccc(-c2nc3ccccc3n2-c2ccccc2)cc1 [Example 7, 1-phenyl-2-(4-nitrophenyl)benzimidazole]		9.12	
Clc1ccc(-n2c(-c3ccccc3)nc3ccccc32)cc1 [Example 8, 1-(4-chlorophenyl)-2-phenylbenzimidazole]	11		
FC(F)(F)c1cccc(-c2nc3ccccc3n2-c2ccccc2)c1 [Example 9, 1-phenyl-2-(3-trifluoromethylphenyl)-benzimidazole]	15		
O=[N+]([O-])c1cccc(-c2nc3ccccc3n2-c2ccccc2)c1 [Example 10, 1-phenyl-2-(3-nitrophenyl)benzimidazole]		5	
Clc1ccc(-c2nc3ccccc3n2-c2ccc(Cl)cc2)cc1 [Example 11, 1-(4-chlorophenyl)-2-(4-chlorophenyl)-benzimidazole]	19		
FC(F)(F)c1ccc(-c2nc3ccccc3n2-c2ccccc2)cc1 [Example 12, 1-phenyl-2(4-trifluoromethylphenyl)-benzimidazole]		6.72	
c1ccc(-n2c(-c3ccc4ccccc4c3)nc3ccccc32)cc1 [Example 13, 1-phenyl-2-(2-naphthyl)benzimidazole]		6.91	
COc1cc(OC)cc(-c2nc3ccccc3n2-c2ccccc2)c1 [Example 14, 1-phenyl-2-(3,5-dimethoxyphenyl)benzimidazole]		1.54	
COc1ccc(-c2nc3ccccc3n2-c2ccccc2)cc1OC [Example 15, 1-phenyl-2-(3,4-dimethoxyphenyl)benzimidazole]		2.98	
COc1cc(-c2nc3ccccc3n2-c2ccccc2)cc(OC)c1OC [Example 16, 1-phenyl-2-(3,4,5-trimethoxyphenyl)-benzimidazole]		0.64	
COc1ccc(-c2nc3ccccc3n2-c2ccc(Cl)cc2)cc1 [Example 17, 1-(4-chlorophenyl)-2-(4-methoxyphenyl)benzimidazole]	17		
Cc1ccc(-c2nc3ccccc3n2-c2ccccc2)cc1 [Example 18, 1-phenyl-2-(4-methylphenyl)benzimidazole]	37		
Cc1cccc(-c2nc3ccccc3n2-c2ccccc2)c1 [Example 19, 1-phenyl-2-(3-methylphenyl)benzimidazole]		1.1	
CN(C)CCn1c(-c2ccccc2)nc2ccccc21 [Example 26, 1-dimethylaminoethyl-2-phenylbenzimidazole dihydrochloride]	0		
Cc1cccc(-c2nc3ccccc3n2Cc2ccc(Cl)cc2Cl)c1 [Example 63, 1-(2,4-Dichlorobenzyl)-2-(3-methylphenyl)benzimidazole]			inhibition at 10 µM: 36%
COc1cccc(Cn2c(-c3cccc(C)c3)nc3ccccc32)c1 [Example 65, 1-(3-Methoxybenzyl)-2-(3-methylphenyl)benzimidazole]			inhibition at 10 µM: 58%
COc1ccc(Cn2c(-c3cccc(C)c3)nc3ccccc32)cc1 [Example 66, 1-(4-Methoxybenzyl)-2-(3-methylphenyl)benzimidazole]			inhibition at 10 µM: 34%
Cc1cccc(-c2nc3ccccc3n2Cc2cccc(O)c2)c1 [Example 67, 1-(3-hydroxybenzyl)-2-(3-methylphenyl)benzimidazole hydrobromide]			inhibition at 10 µM: 60%

The next lines start with results.

inhibition at 20 µM [%]	IC50 [µM]	Compound	other results
	3.47	N#Cc1ccc(-c2nc3ccccc3n2-c2ccccc2)cc1 [Example 20, 1-phenyl-2-(4-cyanophenyl)benzimidazole]	
26		c1ccc(-n2c(C3CCCCC3)nc3ccccc32)cc1 [Example 21, 1-phenyl-2-cyclohexylbenzimidazole]	
65		Clc1ccccc1-c1nc2ccccc2n1-c1ccccc1 [Example 22, 1-phenyl-2-(2-chlorophenyl)benzimidazole]	
51		Cc1ccccc1-c1nc2ccccc2n1-c1ccccc1 [Example 23, 1-phenyl-2-(2-methylphenyl)benzimidazole]	
	8.67	COc1ccccc1-c1nc2ccccc2n1-c1ccccc1 [Example 24, 1-phenyl-2-(2-methoxyphenyl)benzimidazole]	
	3.27	N#Cc1cccc(-c2nc3ccccc3n2-c2ccccc2)c1 [Example 25, 1-phenyl-2-(3-cyanophenyl)benzimidazole]	
	6.61	Clc1ccc(-c2nc3ccccc3n2-c2ccccc2)cc1Cl [Example 27, 1-phenyl-2-(3,4-dichlorophenyl)benzimidazole]	
16		c1ccc(-c2nc3ccccc3n2CCN2CCCCC2)cc1 [Example 28, 1-(piperidin-1-ylethyl)-2-phenylbenzimidazole dihydrochloride]	
67		Oc1ccc(-c2nc3ccccc3n2-c2ccccc2)cc1 [Example 29, 1-phenyl-2-(4-hydroxyphenyl)benzimidazole]	
79		O=[N+]([O-])c1cc(-c2nc3ccccc3n2-c2ccccc2)ccc1Cl [Example 30, 1-phenyl-2-(3-nitro-4-chlorophenyl)-benzimidazole]	
	10	CCCc1nc2ccccc2n1-c1ccccc1 [Example 32, 1-phenyl-2-propylbenzimidazole]	
	3.98	c1ccc(-n2c(-c3cccs3)nc3ccccc32)cc1 [Example 33, 1-phenyl-2-(thien-2-yl)benzimidazole]	
	12	Oc1cccc(-c2nc3ccccc3n2-c2ccccc2)c1 [Example 34, 1-phenyl-2-(3-hydroxyphenyl)benzimidazole]	
51		CCCCCc1nc2ccccc2n1-c1ccccc1 [Example 35, 1-phenyl-2-pentylbenzimidazole hydrochloride]	
43		FC(F)(F)c1ccccc1-c1nc2ccccc2n1-c1ccccc1 [Example 36, 1-phenyl-2-(2-trifluoromethylphenyl)-benzimidazole]	
	1.05	COc1ccc2c(c1)nc(-c1cc(OC)c(OC)c(OC)c1)n2Cc1ccccc1 [Example 38, 1-phenylmethyl-2-(3,4,5-trimethoxyphenyl)-5-methoxybenzimidazole]	
	0.427	COc1ccc2nc(-c3cc(OC)c(OC)c(OC)c3)n(Cc3ccccc3)c2c1 [Example 39, 1-phenylmethyl-2-(3,4,5-trimethoxyphenyl)-6-methoxybenzimidazole]	
	1.13	COc1cc(-c2nc3ccc(O)cc3n2Cc2ccccc2)cc(OC)c1OC [Example 69, 1-benzyl-2-(3,4,5-trimethoxyphenyl)-6-(hydroxy)-benzimidazole hydrochloride]	
	0.151	COc1cc(-c2nc3ccc(OC(C)CN(C)C)cc3n2Cc2ccccc2)cc(OC)c1OC (centres unmarked) [Example 78]	
	0.097	COc1cc(-c2nc3ccc(OCCN(C)C)cc3n2Cc2ccccc2)cc(OC)c1OC [Example 79, 1-benzyl-2-(3,4,5-trimethoxyphenyl)-6-[2-(N,N-dimethylamino)ethoxy]benzimidazole]	
	0.123	COc1cc(-c2nc3ccc(OCCCN(C)C)cc3n2Cc2ccccc2)cc(OC)c1OC [Example 80, 1-benzyl-2-(3,4,5-trimethoxyphenyl)-6-[3-(N,N-dimethylamino)propoxy]benzimidazole]	
	0.04	COc1cc(-c2nc3ccc(OCCN(C(C)C)C(C)C)cc3n2Cc2ccccc2)cc(OC)c1OC [Example 81, 1-benzyl-2-(3,4,5-trimethoxyphenyl)-6-[2-(N,N-diisopropylamino)ethoxy]benzimidazole]	
	0.098	COc1cc(-c2nc3ccc(OCCN4CCN(C)CC4)cc3n2Cc2ccccc2)cc(OC)c1OC [Example 83, 1-benzyl-2-(3,4,5-trimethoxyphenyl)-6-[2-(4-methyl-1-piperazinyl)ethoxy]benzimidazole]	
